Molecules are shown by their SMILES. Like-named read-outs stand apart in the source and are kept apart here.

Data set [1] in a line: Concentration and elimination of ADP and its metabolites in liver, kidney, muscle, fat/skin after oral ^3H-ADP for 7 d. The format is in vivo, swine. As to conditions: for half-life: pig, po; for concentration at 0.25 d / concentration at 1 d / concentration at 3 d / concentration at 7 d / concentration at 14 d: swine, oral, 5 mg/kg b.w. The protocol: (§1) A total of 36 animals from each species (swine n = 24) were randomly assigned to six equal treatment groups and administered a single daily dose of ^3 H-ADP at 5 mg/kg b. w. (0.1 Ci/g) through oral gavage for 7 consecutive days. All the animals were housed on the basis of their group in the cages or aquaria throughout the whole study period. A group of animals was slaughtered through exsanguination under diethyl ether inhalation of anesthesia in the period of 6 h, 1, 3, 7, 14, and 21 d after the administration. The blood samples were immediately collected into the heparinized tubes and was centrifuged at 1920 × g at 4 °C for 10 min to obtain the plasma. The tissues from the heart, liver, spleen, lung, kidney, craw (broilers), stomach, intestine, fat, skin, muscle, thymus, pancreas, bile, bladder, hair (scale for carp), genital gland, adrenal glands, swim bladder (carp), brain, lymph, and bursa (broilers) were carefully excised and collected. The tissues were thoroughly rinsed with the deionized water to remove the residuary blood, blotted to dryness, and finally to perform the homogenization. In order to avoid cross-contamination the dissecting instruments were washed during the tissue procurements. The blank tissues were collected in order to provide control matrices. The total radioactivity levels in each sample were determined through LSC. The samples extracted from the plasma, bile, and tissues of the liver, kidney, muscle, and fat/skin were analyzed through LC/MS-IT-TOF and v. ARC radiometric detection for metabolite profiling. The blank samples were used as control to determine the background radioactivity or the endogenous nondrug-related ions observed within respective matrices or their extracts.
The feces and tissues (2 g) were diluted with a mixture of methanol and chloroform (1:3, v:v; 2 mL/g homogenate). This procedure was carried out in a fume hood for the safety aspects. The pH value was adjusted to 9.0 with NH4OH. The mixture was vortexed and sonicated for 5 min and 10 min, respectively, and finally the samples were centrifuged at 7690 × g for 10 min. The supernatant was aspirated and then transferred into a new centrifuge tube. The obtained pellet was again subjected to the same process of vortex, ultrasonication, extraction, and centrifugation. The combined supernatant was concentrated under a stream of nitrogen in a water bath at 40 °C. The residue was reconstituted with 0.3 mL of methanol–water (1:9, v:v) before the injection into the LC-v. ARC/MS-IT-TOF system for analysis.
ADP and its metabolites in the prepared samples were determined with a v. ARC radiometric detector and a hybrid IT/TOF mass spectrometer connected to the HPLC system (Shimadzu Corp., Kyoto, Japan). The LC system was equipped with a solvent delivery pump (LC-20AD), an auto-sampler (SIL-20AC), a degasser (DGU-20 A 3), a photodiode array detector (SPD-M20A), a communication base module (CBM-20 A), and a column oven (CTO-20AC). The chromatographic separation was achieved by using an Agilent extend-C18 column (2.1 mm × 150 mm, 5 μm) with a gradient mobile phase of A (0.01% ammonia and 5 mM ammonium acetate in water) and B (methanol) at a flow rate of 0.2 mL/min. The column temperature was maintained at 35 °C. Various HPLC methods were performed because of the large number of different metabolites to be analyzed. For the porcine sample, method 1 started at 5% B and increased to 20% B over 35 min, then to 55% B by 60 min, followed by re-equilibration for another 10 min. For the remaining samples, method 2 started at 10% B and increased to 60% B over 30 min, subsequently was maintained at 60% B for an additional 10 min, and then changed to 90% B over 2 min and maintained for 2 min. Afterwards, a re-equilibration step (decreased to 10% B over 1 min and maintained at 10% B for additional 9 min) was followed. For each matrix, more than 98% of the radioactivity injected into the column was eluted during the running time of the gradient program. […]

Data set [2] is described as follows: Metabolite profiling of ADP in excreta, plasma and bile (LC-v.ARC/MS-IT-TOF). As to conditions: for percentage of the individual metabolite compared with the total concentration of ADP-related: within 6 h after dosing; for Average percentage of ADP and its metabolites in total dose: Carp, Excreta, single oral 5 mg/kg b.w. ^3H-ADP. The format is in vivo, carp. The procedure:
Animals (4 swine, 6 broilers, 6 carp, and 3 male and 3 female rats) were housed individually in clean, suspended wire-mesh metabolism cages, designed to separate the urine from the feces (carp were raised in individual aquaria). Each animal was weighed and assigned with a permanent identification number. A single dose of ^3 H-ADP (5 mg/kg b. w., 0.1 Ci/g) was administered via the oral gavage. Excreta were collected on ice at the pre-administration, in the period of 6, 12, and 24 h on day 1 d, and afterwards, intermittently in the period of 24 h up to 14 d. The piscine excreta were collected by changing and collecting raised water. The total volume or weight of each sample was measured and homogenized. The total radioactivity levels were determined through LSC for the recovery calculations. After the preparation, the samples were analyzed through LC/MS-IT-TOF with v. ARC radiometric detection (XenoBioticLaboratories, Inc.) for metabolite profiling. The pretreatment samples were used as controls to determine the background radioactivity or the endogenous nondrug-related ions observed within respective matrices or their extracts.
as §1
For metabolite profiling, the urine and feces samples from each animals were pooled proportionally to the excreted amount in each sampling period from 0 to 6 h, 6 h to 1 d, 1 to 3 d, 3 to 7 d, and 7 to 14 d post-dose, respectively. All samples were fully homogenized before the process. The pre-dose and blank samples served as the controls for determining the background radioactivity or the endogenous, nondrug-related ions observed within respective matrices or their extracts.
The urine samples (plasma, bile and raised water for carp) was subjected to solid-phase extraction with an Oasis MCX cartridge (3 mL, […]; Waters, Milford, MA, USA) for metabolite purification and enrichment. The pH value was adjusted to 2.8–3.2 by adding 1 M hydrochloric acid (HCl), and 2 mL of the sample was transferred into MCX cartridge, which was preconditioned with 3 mL of methanol and 3 mL of 0.1 mol/L HCl solution. The cartridge was washed with 3 mL of 0.1 mol/L HCl solution and was eluted with 5 mL of NH4OH/methanol (4:96, v:v). The effluent was concentrated to dryness under a stream of nitrogen at 40 °C. […]

Setting [3] is: swine kidney, after 5 mg/kg b. w. for 7 days, read-out: t1/2 of the individual compound (converted).
[4] abbreviates: swine liver, after 5 mg/kg b. w. for 7 days, read-out: t1/2 of the individual compound (converted).
The mark [5] stands for this setting: swine muscle, after 5 mg/kg b. w. for 7 days, read-out: t1/2 of the individual compound (converted).
[6] abbreviates: tissues (liver, kidney, muscle, fat/skin), 5 mg/kg, swine tissues, read-out: t1/2 of the individual compound, range over tissues.

With `COc1cc(Cc2cnc(N)nc2N)cc(OC)c1N(C)C` [A0, 2,4-Diamino-5-[4-(dimethylamino)-3,5-dimethoxybenzyl] pyrimidine], the half-life in data set [1] (swine fat, after 5 mg/kg b. w. for 7 days, read-out: t1/2 of the individual compound (converted)) is 80.9 h; in data set [1] (setting [3]), 80.9 h; in data set [1] (setting [4]), 105 h; in data set [1] (setting [5]), 38.9 h; in data set [1] (setting [6]), 38.9 to 105 h. Moreover, in data set [1] (swine liver, kidney, muscle, fat, over the sampling times), the “share of the sample radioactivity in the detected tissues” value is “more than 42%”. The concentration at 0.25 d came to 1270 ± 430 ng/g in data set [1] (fat), 19000 ± 8810 ng/g in data set [1] (kidney), 7600 ± 1040 ng/g in data set [1] (liver) and 1490 ± 390 ng/g in data set [1] (muscle). Besides, the concentration at 1 d in data set [1] (fat) is 510 ± 120 ng/g; in data set [1] (kidney) it was 4160 ± 2000 ng/g; in data set [1] (liver), 3010 ± 900 ng/g; in data set [1] (muscle), 890 ± 220 ng/g. The concentration at 3 d in data set [1] (fat) turned out to be 330 ± 70 ng/g; in data set [1] (kidney), 1080 ± 220 ng/g; in data set [1] (liver) it was 1320 ± 270 ng/g; in data set [1] (muscle), 380 ± 90 ng/g. For the same compound, the concentration at 7 d in data set [1] (fat) was 150 ± 30 ng/g; in data set [1] (kidney) it was 360 ± 90 ng/g; in data set [1] (liver) it was 820 ± 140 ng/g; in data set [1] (muscle), 70 ± 10 ng/g. In addition, the figures for the concentration at 14 d in data set [1] (kidney) and in data set [1] (liver) were 110 ± 20 ng/g and 240 ± 50 ng/g, respectively. Also, the “percentage of the individual metabolite compared with the total concentration of ADP-related” value (shortened to “percentage of the individual metabolite”) is given as 64.7% in data set [2] (Carp Bile), 87.5% in data set [2] (Carp Extra (excreta)) and 61.7% in data set [2] (Carp Plasma). The “Average percentage of ADP and its metabolites in total dose” value (shortened to “Average percentage”) in data set [2] is listed as 82.4%. Besides, the “level of intact ADP” value in data set [2] (carp, single oral 5 mg/kg b. w. (Table S5)) is reported as 82.4 % of the oral dose.
In the case of `CNc1c(OC)cc(Cc2cnc(N)nc2N)cc1OC` [A1, N-monodesmethyl-ADP], the half-life in data set [1] (setting [3]) was 21.8 h; in data set [1] (setting [4]) it was 25 h; in data set [1] (setting [5]), 17.5 h; in data set [1] (setting [6]), 17.5 to 25 h. Also, the concentration at 0.25 d came out at 300 ± 70 ng/g in data set [1] (fat), 15400 ± 5300 ng/g in data set [1] (kidney), 4620 ± 850 ng/g in data set [1] (liver) and 850 ± 250 ng/g in data set [1] (muscle). The concentration at 1 d in data set [1] (fat) was found to be 60 ± 10 ng/g; in data set [1] (kidney) it was 3430 ± 1250 ng/g; in data set [1] (liver) it was 1650 ± 330 ng/g; in data set [1] (muscle) it was 150 ± 40 ng/g. For the same compound, the concentration at 3 d stood at 160 ± 40 ng/g in data set [1] (kidney), 640 ± 110 ng/g in data set [1] (liver) and 50 ± 10 ng/g in data set [1] (muscle). For the same compound, the concentration at 7 d in data set [1] (kidney) turned out to be 20 ng/g. Moreover, the “percentage of the individual metabolite” value was 25.5% in data set [2] (Carp Bile), 9.9% in data set [2] (Carp Extra (excreta)) and 23.9% in data set [2] (Carp Plasma). Moreover, the “Average percentage” value in data set [2] was 8.9%.
Turning to `COc1cc(Cc2cnc(N)nc2N)cc(OC)c1N` [A2, N-didesmethyl-ADP], the half-life is 10.1 to 38.6 h in data set [1] (5 mg/kg, kidney and liver of swine and rat, read-out: t1/2 of the individual compound, range over tissues); 10.1 h in data set [1] (setting [3]); 23.8 h in data set [1] (setting [4]). For the same compound, the concentration at 0.25 d was 70 ± 10 ng/g in data set [1] (fat), 6360 ± 1040 ng/g in data set [1] (kidney), 2440 ± 480 ng/g in data set [1] (liver) and 160 ± 40 ng/g in data set [1] (muscle). Also, the concentration at 1 d in data set [1] (kidney) worked out at 1300 ± 400 ng/g; in data set [1] (liver), 840 ± 110 ng/g; in data set [1] (muscle), 50 ± 10 ng/g. Moreover, the concentration at 3 d in data set [1] (kidney) amounted to 20 ± 10 ng/g; in data set [1] (liver) it was 310 ± 80 ng/g. Besides, the results for the “percentage of the individual metabolite” value in data set [2] (Carp Bile), in data set [2] (Carp Extra (excreta)) and in data set [2] (Carp Plasma) were 9.8%, 2.5% and 14.4%, respectively. For the same compound, in data set [2], the “Average percentage” value is 2.9%.

Values taken from article PMC4738305, “Metabolism and Disposition of Aditoprim in Swine, Broilers, Carp and Rats” (Scientific Reports, 2016).
